# Data published in ChEMBL document CHEMBL6114969, “Ultra-short lipopeptides containing d-amino acid exhibiting excellent stability and antibacterial activity against gram-positive bacteria” (Eur J Med Chem, 2025).
# The source made the active and inactive calls. The rule behind the calls is not given here.
# What was measured:
# Staphylococcus aureus [1] = experiment: Antibacterial activity against methicillin-resistant Staphylococcus aureus ATCC 33591 infected in Balb/c mouse model of acute systemic infection assessed as reduction in bacterial count in liver at 10 mg/kg, ip measured after 5 days; type: functional, organism-based; conditions: time 5.0 day
# Staphylococcus aureus [2] = experiment: Antibacterial activity against Staphylococcus aureus ATCC 29213 incubated for 18 to 24 hrs by broth microdilution method; type: functional; conditions: time 18-24 hrs
# Staphylococcus aureus [3] = experiment: Antibacterial activity against methicillin-resistant Staphylococcus aureus ATCC 33591 incubated for 18 to 24 hrs in presence of 2 mg/ml of trypsin by broth microdilution method; type: functional; conditions: time 18-24 hrs
# Staphylococcus aureus [4] = experiment: Antibacterial activity against methicillin-resistant Staphylococcus aureus ATCC 33591 incubated for 18 to 24 hrs in presence of 2 mg/ml of pepsin by broth microdilution method; type: functional; conditions: time 18-24 hrs
# Staphylococcus aureus [5] = experiment: Antibacterial activity against methicillin-resistant Staphylococcus aureus ATCC 33591 assessed as fold change in MIC incubated for 18 to 24 hrs in presence of NaCl by broth microdilution method; type: functional; conditions: time 18-24 hrs
# [6] = Stability in mouse serum assessed as half life measured upto 96 hrs by RP-HPLC analysis; type: ADME, cell-free
# Staphylococcus aureus [7] = experiment: Bactericidal activity against methicillin-resistant Staphylococcus aureus ATCC 33591 at 2 times MIC incubated for 6 hrs by time-kill assay relative to control; type: functional
# Staphylococcus aureus [8] = experiment: Inhibition of ciprofloxacin-induced drug resistance in Staphylococcus aureus ATCC 25923 at sub-MIC measured upto 15 passages; type: functional, organism-based
# Staphylococcus aureus [9] = experiment: Antibacterial activity against polymyxin B-resistant Staphylococcus aureus ATCC 25923 incubated for 18 to 24 hrs; type: functional; conditions: time 18-24 hrs
# Staphylococcus aureus [10] = experiment: Synergistic antibacterial activity against methicillin-resistant Staphylococcus aureus ATCC 33591 assessed as fractional inhibitory concentration index upto 2 times MIC incubated for 18 to 24 hrs in presence of ciprofloxacin by checkerboard assay; type: functional; conditions: time 18-24 hrs
# Staphylococcus aureus [11] = experiment: Synergistic antibacterial activity against methicillin-resistant Staphylococcus aureus ATCC 33591 assessed as fractional inhibitory concentration index upto 2 times MIC incubated for 18 to 24 hrs in presence of gentamicin by checkerboard assay; type: functional; conditions: time 18-24 hrs
# Staphylococcus aureus [12] = experiment: Bactericidal activity against methicillin-resistant Staphylococcus aureus ATCC 33591 at 4 times MIC incubated for 24 hrs in presence of 8 ug/ml LTA by absorbance based assay; type: functional, organism-based
# Staphylococcus aureus [13] = experiment: Induction of cell membrane damage in methicillin-resistant Staphylococcus aureus ATCC 33591 assessed as nucleic acid leakage at 2 to 8 times MIC measured upto 360 mins by absorbance based assay; type: functional, organism-based
# Staphylococcus aureus [14] = experiment: Induction of ROS production in methicillin-resistant Staphylococcus aureus ATCC 33591 at 1 to 4 times MIC measured upto 360 mins by DCFH-DA dye based analysis; type: functional, organism-based
# DNA = experiment: Binding affinity to genomic DNA in methicillin-resistant Staphylococcus aureus ATCC 33591 at 1 to 8 times MIC; type: nucleic-acid assay
# [15] = Toxicity in Balb/c mouse assessed as survival rate at 80 mg/kg, ip measured after 7 days; type: organism-based; conditions: in vivo, time 7 day
# [16] = Toxicity in Balb/c mouse assessed as survival rate at 40 mg/kg, ip measured after 7 days; type: organism-based; conditions: in vivo, time 7 day
# [17] = Toxicity in Balb/c mouse assessed as body weight change at 20 to 80 mg/kg, ip measured after 7 days; type: organism-based; conditions: in vivo, 168 h, dose 20-80 mg/kg, time 7 day
# [18] = Toxicity in Balb/c mouse assessed as change in heart co-efficient at 20 to 80 mg/kg, ip measured after 7 days; type: organism-based; conditions: in vivo, 168 h, dose 20-80 mg/kg, time 7 day
# [19] = Toxicity in Balb/c mouse assessed as change in lung co-efficient at 20 to 80 mg/kg, ip measured after 7 days; type: organism-based; conditions: in vivo, 168 h, dose 20-80 mg/kg, time 7 day
# [20] = Toxicity in Balb/c mouse assessed as change in liver co-efficient at 20 to 80 mg/kg, ip measured after 7 days; type: organism-based; conditions: in vivo, 168 h, dose 20-80 mg/kg, time 7 day
# [21] = Toxicity in Balb/c mouse assessed as change in spleen co-efficient at 20 to 80 mg/kg, ip measured after 7 days; type: organism-based; conditions: in vivo, 168 h, dose 20-80 mg/kg, time 7 day
# [22] = Toxicity in Balb/c mouse assessed as organ edema at 20 to 80 mg/kg, ip measured after 7 days; type: organism-based; conditions: in vivo, 168 h, dose 20-80 mg/kg, time 7 day
# [23] = Toxicity in Balb/c mouse assessed as change in key organs appearance at 20 to 40 mg/kg, ip measured after 7 days; type: organism-based; conditions: in vivo, 168 h, dose 20-40 mg/kg, time 7 day
# [24] = Toxicity in Balb/c mouse assessed as kidney pigmentation at 80 mg/kg, ip measured after 7 days; type: organism-based; conditions: in vivo, 168 h, time 7 day
# [25] = Toxicity in Balb/c mouse assessed as change in serum AST level at 20 to 80 mg/kg, ip measured after 7 days; type: organism-based; conditions: in vivo, 168 h, dose 20-80 mg/kg, time 7 day
# [26] = Toxicity in Balb/c mouse assessed as cell swelling in kidney at 80 mg/kg, ip measured after 7 days by H and E staining based analysis; type: organism-based; conditions: in vivo, 168 h, time 7 day
# [27] = Toxicity in Balb/c mouse assessed as cell swelling in lung at 80 mg/kg, ip measured after 7 days by H and E staining based analysis; type: organism-based; conditions: in vivo, 168 h, time 7 day
# Staphylococcus aureus [28] = experiment: Antibacterial activity against methicillin-resistant Staphylococcus aureus ATCC 33591 infected in Balb/c mouse model of acute systemic infection assessed as reduction in bacterial count in spleen at 10 mg/kg, ip measured after 5 days; type: functional, organism-based; conditions: time 5.0 day
# Staphylococcus aureus [29] = experiment: Antibacterial activity against methicillin-resistant Staphylococcus aureus ATCC 33591 infected in Balb/c mouse model of acute systemic infection assessed as reduction in cell swelling in heart at 10 mg/kg, ip measured after 5 days by H and E staining based analysis; type: functional, organism-based; conditions: time 5.0 day
# Staphylococcus aureus [30] = experiment: Antibacterial activity against methicillin-resistant Staphylococcus aureus ATCC 33591 infected in Balb/c mouse model of acute systemic infection assessed as reduction in bleeding in liver at 10 mg/kg, ip measured after 5 days by H and E staining based analysis; type: functional, organism-based; conditions: time 5.0 day
# Staphylococcus aureus [31] = experiment: Antibacterial activity against methicillin-resistant Staphylococcus aureus ATCC 33591 infected in Balb/c mouse model of acute systemic infection assessed as reduction in tubule contraction in kidney at 10 mg/kg, ip measured after 5 days by H and E staining based analysis; type: functional, organism-based; conditions: time 5.0 day
# Staphylococcus aureus [32] = experiment: Antibacterial activity against methicillin-resistant Staphylococcus aureus ATCC 33591 infected in Balb/c mouse model of pneumonia infection assessed as reduction in bacterial load in lung at 10 mg/kg, ip administered thrice at 4, 8 and 12 hrs post-infection measured after 24 hrs post-infection in presence of polymyxin B; type: functional, organism-based; conditions: time 20.0 hrs
# Staphylococcus aureus [33] = experiment: Antibacterial activity against methicillin-resistant Staphylococcus aureus ATCC 33591 infected in Balb/c mouse model of pneumonia infection assessed as reduction in IL-1beta activity in lung at 10 mg/kg, ip administered thrice at 4, 8 and 12 hrs post-infection measured after 24 hrs post-infection by IHC analysis; type: functional, organism-based; conditions: time 20.0 hrs
# Staphylococcus aureus [34] = experiment: Antibacterial activity against methicillin-resistant Staphylococcus aureus ATCC 33591 infected in Balb/c mouse model of skin wound infection assessed as reduction in bacterial load in skin at 10 mg/kg, ip administered thrice at 1, 24 and 48 hrs post-infection measured after 72 hrs post-infection in presence of polymyxin B; type: functional, organism-based; conditions: time 71.0 hrs
smiles,measurement,setting,value
CCCCCCCCCCCC(=O)N[C@H](CCCNC(=N)N)C(=O)N[C@H](CCCNC(=N)N)C(=O)N[C@H](Cc1c[nH]c2ccccc12)C(=O)O,Activity,Staphylococcus aureus [1],Active
same,MIC,Staphylococcus aureus [2],4 µM
same,MIC,Staphylococcus aureus [3],4 µM
same,MIC,Staphylococcus aureus [4],8 µM
same,fold change (FC),Staphylococcus aureus [5],<3
same,half-life,[6],> 48 h
same,Activity,Staphylococcus aureus [7],100%
same,inhibition,Staphylococcus aureus [8],Active
same,MIC,Staphylococcus aureus [9],4 µM
same,fractional inhibitory concentration index (FICI),Staphylococcus aureus [10],0.75
same,fractional inhibitory concentration index (FICI),Staphylococcus aureus [11],0.125
same,Activity,Staphylococcus aureus [12],inactive
same,Activity,Staphylococcus aureus [13],Active
same,Activity,Staphylococcus aureus [14],Active
same,Activity,DNA,Not active; Compound Exhibited Weak Affinity
same,survival at 168 h,[15],75%
same,survival at 168 h,[16],0%
same,Activity,[17],Non-toxic
same,Activity,[18],Non-toxic
same,Activity,[19],Non-toxic
same,Activity,[20],Toxic
same,Activity,[21],Non-toxic
same,Activity,[22],Toxic
same,Activity,[23],Non-toxic
same,Activity,[24],Toxic
same,Activity,[25],Non-toxic
same,Activity,[26],Toxic
same,Activity,[27],Toxic
same,Activity,Staphylococcus aureus [28],Active
same,Activity,Staphylococcus aureus [29],Active
same,Activity,Staphylococcus aureus [30],Active
same,Activity,Staphylococcus aureus [31],Active
same,Activity,Staphylococcus aureus [32],Active
same,Activity,Staphylococcus aureus [33],Active
same,Activity,Staphylococcus aureus [34],Active
